Experimental data: ChEMBL document CHEMBL5376023, “The allure of targets for novel drugs” (RSC Med Chem, 2024)
In brackets after ≈: the same amount, converted by molar mass.

Tests used:
[1] = tested on: Mycobacterium tuberculosis; assay: Antimycobacterial activity against Mycobacterium tuberculosis HN878 assessed as inhibition of mycobacterial growth incubated for 5 days; type: functional; details: HN878, 120 h, time 5 day
Aspergillus fumigatus = assay: Antifungal activity against Aspergillus fumigatus ATCC 13073 strain assessed as […] growth inhibition; type: functional, organism-based
Rhizopus arrhizus = assay: Antifungal activity against Rhizopus arrhizus assessed as fungal growth inhibition; type: functional, organism-based
Candida albicans = assay: Antifungal activity against Candida albicans assessed as inhibition of fungal growth; type: functional, organism-based
Cryptococcus neoformans = assay: […] activity against Cryptococcus neoformans assessed as inhibition of […]; type: functional, organism-based
Nakaseomyces glabratus [2] = assay: Antifungal activity against Candida glabrata MTCC 3019 assessed as inhibition of fungal growth incubated for 24 hrs by agar well diffusion method; type: functional, organism-based; details: MTCC 3019, 24 h
[Candida] auris = Antifungal activity against Candida auris assessed as inhibition of fungal growth; type: functional, organism-based; details: Candidozyma auris
Fusarium oxysporum = assay: Antifungal activity against Fusarium oxysporum assessed as inhibition of fungal growth; type: functional, organism-based
Nakaseomyces glabratus [3] = assay: Antifungal activity against Candida glabrata ATCC 90030 assessed as inhibition of microbial growth incubated for 24 hrs by broth microdilution method; type: functional, organism-based; details: ATCC 90030, 24 h
Aspergillus flavus = assay: Antifungal activity against Aspergillus flavus assessed as inhibition of fungal growth; type: functional, organism-based

SMILES	MIC99 [1] [µM]	IC50 (Aspergillus fumigatus) [µg/mL]	IC50 (Rhizopus arrhizus) [µg/mL]	IC50 (Candida albicans) [µg/mL]	IC50 (Cryptococcus neoformans) [µg/mL]	IC50 (Nakaseomyces glabratus [2]) [µg/mL]	IC50 ([Candida] auris) [µg/mL]	IC50 (Fusarium oxysporum) [µg/mL]	IC50 (Nakaseomyces glabratus [3]) [µg/mL]	IC50 (Aspergillus flavus) [µg/mL]
Cn1cc(NC(=O)c2cc(NC(=O)c3ccc(/C=C/c4ccc(C(F)(F)F)cc4)cc3)cn2C)cc1C(=O)NCCC(=N)N	1.56 (≈ 0.945 µg/mL)									
CN(C)c1ccc(/C=C/c2ccc(C(=O)Nc3cc(C(=O)Nc4cc(C(=O)NCCC(=N)N)n(C)c4)n(C)c3)cn2)cc1		0.8 (≈ 1.38 µM)	0.8 (≈ 1.38 µM)	0.8 (≈ 1.38 µM)	0.8 (≈ 1.38 µM)	0.8 (≈ 1.38 µM)	0.8 (≈ 1.38 µM)	0.8 (≈ 1.38 µM)	0.8	0.8 (≈ 1.38 µM)
